Assay results as given in patent US20240374585A1, “EPITHELIAL SODIUM CHANNEL (ENAC) INHIBITOR CONJUGATES AND METHODS FOR USE THEREOF” (Lung Therapeutics, Inc., priority 2021, published 2024).
Where no end group is shown, it is not given here. [ ]: non-standard residue; d: D form. Aib = CC(C)(N)C(=O)O

Legend:
[1] = system: sheep model of cystic fibrosis; test: Tracheal mucous velocity (TMV) in sheep model of cystic fibrosis; format: in vivo
Method: The conjugates of the present invention were tested for their ability to increase lung mucociliary clearance in a sheep model of cystic fibrosis.
The peptide conjugates of the present invention were tested in vivo using a sheep model of cystic fibrosis as described in Scott et al., Am J. Resp. Crit. Care Med., 2017; 196 (6): 734-744; and Sabater et al., PLOS ONE, 2019; 14 (11): e0224764, hereby incorporated by reference in their entirety.
Briefly, tracheal mucous velocity (TMV) was determined in sheep by insufflation of radio-opaque Teflon disks into the trachea and measuring the movement of the disks over a 1 minute period by scintigraphy.
Intubated sheep were treated with the CFTR inhibitor INH-172 by nebulization, which caused a reduction in the mucus transport rate in the trachea. Once a baseline inhibited TMV was obtained at 4 hours following CFTR inhibition, then ENaC inhibitor conjugate (Conj. 13) or control was nebulized into the sheep lung and TMV measurements were repeated hourly.

[2] = target: T1, neutrophil elastase (Homo sapiens, UniProt P08246)
T1 sequence (P08246 30-267): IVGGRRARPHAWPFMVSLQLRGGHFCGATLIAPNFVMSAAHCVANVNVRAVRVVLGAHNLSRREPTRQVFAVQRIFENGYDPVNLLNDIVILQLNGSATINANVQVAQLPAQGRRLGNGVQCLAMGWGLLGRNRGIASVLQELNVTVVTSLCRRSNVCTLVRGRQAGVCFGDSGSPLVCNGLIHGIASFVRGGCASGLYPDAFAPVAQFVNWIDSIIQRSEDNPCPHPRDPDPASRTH
Method: Experiments were therefore performed to determine the stability of the conjugates to protease cleavage.
The conjugates of the invention were incubated in PBS or PBS and 0.1 mg neutrophil elastase for 60 minutes at 37° C. The conjugates were then run on HPLC to determine their stability against protease cleavage.

[3] = target: T2, ENaC (Homo sapiens, UniProt P37088+P51168+P51170); test: ENaC inhibition in NHBE cell monolayers, Ussing epithelial voltage clamp (short circuit current); format: cell-based
T2 construct: Primary NHBE cells were isolated from bronchi of normal healthy patients; endogenous in cells; host or cells: primary normal human bronchial epithelial (NHBE) cells, differentiated at air-liquid interface
T2 sequence (P37088 1-669): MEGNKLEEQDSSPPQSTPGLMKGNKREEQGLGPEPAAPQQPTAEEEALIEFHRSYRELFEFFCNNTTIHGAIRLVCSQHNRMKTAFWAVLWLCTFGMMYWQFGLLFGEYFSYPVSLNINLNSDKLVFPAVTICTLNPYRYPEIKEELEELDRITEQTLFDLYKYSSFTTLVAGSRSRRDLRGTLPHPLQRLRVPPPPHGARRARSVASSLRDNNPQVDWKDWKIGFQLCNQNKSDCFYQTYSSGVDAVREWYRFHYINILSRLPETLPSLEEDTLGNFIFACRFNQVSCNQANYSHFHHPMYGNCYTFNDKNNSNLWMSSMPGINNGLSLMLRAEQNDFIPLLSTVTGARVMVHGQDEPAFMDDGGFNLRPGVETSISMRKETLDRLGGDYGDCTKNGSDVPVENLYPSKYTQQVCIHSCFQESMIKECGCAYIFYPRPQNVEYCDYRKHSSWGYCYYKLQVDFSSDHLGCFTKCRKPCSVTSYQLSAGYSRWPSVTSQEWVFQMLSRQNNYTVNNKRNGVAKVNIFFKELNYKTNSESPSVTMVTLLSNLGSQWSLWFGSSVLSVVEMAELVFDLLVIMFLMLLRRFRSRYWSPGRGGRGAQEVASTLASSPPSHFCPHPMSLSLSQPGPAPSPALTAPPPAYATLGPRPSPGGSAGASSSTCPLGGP
T2 sequence (P51168 1-640): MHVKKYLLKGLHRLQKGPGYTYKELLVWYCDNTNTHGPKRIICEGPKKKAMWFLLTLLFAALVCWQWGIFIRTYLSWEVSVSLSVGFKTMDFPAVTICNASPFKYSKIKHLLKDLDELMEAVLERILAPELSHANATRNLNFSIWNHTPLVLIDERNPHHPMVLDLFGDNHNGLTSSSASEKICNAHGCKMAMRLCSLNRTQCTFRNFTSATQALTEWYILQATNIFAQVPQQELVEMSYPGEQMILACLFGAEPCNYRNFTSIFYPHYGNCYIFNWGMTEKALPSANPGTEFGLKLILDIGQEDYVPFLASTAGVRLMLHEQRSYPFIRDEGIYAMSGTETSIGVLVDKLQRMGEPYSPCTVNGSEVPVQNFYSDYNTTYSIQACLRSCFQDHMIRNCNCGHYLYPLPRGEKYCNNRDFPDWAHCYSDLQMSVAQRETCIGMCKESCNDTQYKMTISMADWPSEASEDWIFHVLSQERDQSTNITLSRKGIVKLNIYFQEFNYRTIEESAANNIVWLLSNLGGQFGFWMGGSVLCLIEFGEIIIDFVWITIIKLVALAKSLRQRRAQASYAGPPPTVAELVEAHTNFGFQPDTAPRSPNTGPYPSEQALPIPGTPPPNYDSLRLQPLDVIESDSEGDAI
T2 sequence (P51170 1-649): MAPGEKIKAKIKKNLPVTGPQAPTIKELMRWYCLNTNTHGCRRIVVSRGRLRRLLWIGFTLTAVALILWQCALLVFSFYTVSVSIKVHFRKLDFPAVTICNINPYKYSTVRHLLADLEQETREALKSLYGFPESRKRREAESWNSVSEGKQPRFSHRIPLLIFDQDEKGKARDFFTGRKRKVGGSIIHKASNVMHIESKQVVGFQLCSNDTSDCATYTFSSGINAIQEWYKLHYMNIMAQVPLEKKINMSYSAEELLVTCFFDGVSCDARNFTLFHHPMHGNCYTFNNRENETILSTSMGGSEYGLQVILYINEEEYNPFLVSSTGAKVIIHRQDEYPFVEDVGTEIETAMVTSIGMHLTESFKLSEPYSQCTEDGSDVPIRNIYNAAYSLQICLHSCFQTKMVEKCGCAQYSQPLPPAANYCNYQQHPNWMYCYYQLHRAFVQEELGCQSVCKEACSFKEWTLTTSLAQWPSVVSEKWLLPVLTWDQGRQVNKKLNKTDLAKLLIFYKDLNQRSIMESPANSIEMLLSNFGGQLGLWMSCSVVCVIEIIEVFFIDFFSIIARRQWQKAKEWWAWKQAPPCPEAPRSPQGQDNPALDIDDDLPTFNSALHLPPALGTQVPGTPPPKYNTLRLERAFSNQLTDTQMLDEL
Method: The objective of this study was to measure the ability of the illustrative conjugates to modulate ion transport function of ENAC in normal human bronchial epithelial (NHBE) cell monolayers. Sodium transport function of ENAC expressed in NHBE monolayers was evaluated using an Ussing epithelial voltage clamp apparatus. See, Hirsh et al., J. Pharmacol. Exp. Ther. 2008; 325:77-88, hereby incorporated by reference in its entirety.
Primary NHBE cells were isolated from bronchi of normal healthy patients, expanded in Lonza media (BEGM™ BulletKit™), and plated on Snapwell™ filters to form an epithelium. Cells on Snapwell™ inserts were grown for at least 21 days in Vertex Differentiation media and exposed to an air-liquid interface to promote differentiation. At least one day before the assay, mucous overlaying the apical surface was removed from the inserts by incubating the apical surface for about 30 minutes with ≥200 μL of differentiation media followed by aspiration of the mucous film and media.
The NHBE cell monolayers grown on Snapwell™ filter inserts were transferred to Physiologic Instruments Ussing recording chambers (Physiologic Instruments, Inc., San Diego, CA) and superfused with HB-PS. One or more 6-channel or 8-channel Physiologic Instruments VCC MC6 or VCC MC8 epithelial voltage clamps were used in combination to record short circuit current (ISC) from up to 24 inserts simultaneously. Air was used to operate the bubble lifts to rapidly circulate solutions in each Ussing chamber half and to aerate the monolayers.
Inserts were voltage clamped at 0 m V to record the ISC. Bumetanide (20 μM) was added to the basolateral side of all inserts. Test conjugates prepared as DMSO (Sigma-Aldrich) stocks were added cumulatively and sequentially to the apical Ussing chamber halves with at least 3 minutes between each addition.
Time and volume matched additions of DMSO to the basolateral side of the test conjugate treated inserts and both sides of the vehicle treated inserts was made to maintain osmotic balance across the epithelia. Transepithelial resistance was monitored with small voltage steps. The assay was performed at 35±2° C.
ENaC current at each test conjugate concentration was calculated as the peak current change produced by each test conjugate treated insert minus the mean current change produced by the corresponding DMSO additions to time-matched vehicle controls inserts. Cumulative difference data was fit to a Hill equation of the form: […]
Where IEnaC is the ISC peak difference current measured at each test conjugate concentration [Test].

| Compound | fold better than SPX-101 at restoring TMV in vivo ([1]; 0.25 mg/kg vs SPX-101 2 mg/kg) | restoration of TMV ([1]; nebulized 0.125, 0.25 and 0.5 mg/kg after CFTR inhibitor INH-172, vs 0.9% saline, FIG. 5) | dose needed to restore TMV ([1]; nebulized, sheep) [mg/kg] | period over which restoration of TMV was sustained ([1]; nebulized, sheep, vs 0.9% saline) [h] | susceptibility to cleavage by neutrophil elastase [2] | IC50 [3] [nM] | fold more potent than amiloride (ENaC inhibition) ([3]; relative to amiloride IC50) |
| --- | --- | --- | --- | --- | --- | --- | --- |
| Ac-(AmilCC1)-K-(Aib)-SHLRKLRKRLL-NH2 (K[Aib]SHLRKLRKRLL-NH2; not fully specified (N-terminus); printed as Ac-(AmilCC1)-K-(Aib)-SHLRKLRKRLL-NH2; also: amiloride click conjugate (AmilCC1) at residue 1) [Conjugate 13] | approximately 8 fold | dose-dependent restoration of TMV | 0.25 | 8 | drastically reduced susceptibility to cleavage by neutrophil elastase | – | – |
| CC(=O)N[C@@H](CCCCn1cc(CCCCCNC(N)=NC(=O)c2nc(Cl)c(N)nc2N)nn1)C(=O)NCCCCCC(=O)N[C@@H](C)C(=O)N[C@@H](CO)C(=O)N[C@@H](Cc1c[nH]cn1)C(=O)N[C@@H](CC(C)C)C(=O)N[C@@H](CCCNC(=N)N)C(=O)N[C@@H](CCCCN)C(=O)N[C@@H](CC(C)C)C(=O)N[C@@H](CCCNC(=N)N)C(=O)N[C@@H](CCCCN)C(=O)N[C@@H](CCCNC(=N)N)C(=O)N[C@@H](CC(C)C)C(=O)N[C@@H](CC(C)C)C(N)=O [Conjugate 5] | – | – | – | – | – | 30 | about 10 fold |
